# Measurements taken from US10111435B2, “Herbicidal compositions containing N-(1,3,4-oxadiazol-2-yl)-aryl carboxylic acid amides” (BAYER CROPSCIENCE AKTIENGESELLSCHAFT, priority 2013, dated 2018).
# Like-named read-outs stand apart in the source and are kept apart here.
# Tests used:
# Assay type in all cases: in vivo
# Setaria viridis (SETVI) = assay: greenhouse post-emergence herbicidal efficacy against SETVI
# Method: (§1) All trials whose results are shown were conducted in a greenhouse by the methodology specified below. The effect of the inventive herbicidal compositions was examined on the following harmful plants 14 and 21 days after application:
# (§2) Echinochloa crus-galli (ECHCG), Eleusine indica (ELEIN), Setaria viridis (SETVI), Amaranthus retroflexus (AMARE), Chenopodium album (CHEAL), Kochia scoparia (KCHSC), Solanum nigrum (SOLNI), Avena fatua (AVEFA), Bromus sterilis (BROST), Lolium multiflorum (LOLMU), Phalaris minor (PHAMI), Poa annua (POAAN), Galium aparine (GALAP), Matricaria inodora (MATIN) and Polygonum convolvulus (POLCO).
# (§3) The harmful plant seeds were sown in pots (diameter 8 cm) with sandy loam soil and germinated under optimal conditions. The inventive herbicidal compositions or the active ingredients alone were applied post-emergence to the planted pots with a spray volume of 300 L/ha. The trial was conducted in a greenhouse under optimum growth conditions. The herbicidal effects were assessed visually by comparison of untreated and treated plants. The percentages mean: 0%=no effects, 100%=the plants die off completely). The percentages are used to calculate interactions between individual treatments and combination treatments according to S. R. Colby, Weeds 15, pages 20 to 22 (1967).
# (§4) The abbreviations mean: • a.i.=active ingredient • E^C=expected value according to Colby (E^C=A+B−A×B/100) • Diff: =difference (%) of measured value from expected value (%) (measured value minus expected value)
# (§5) Assessment: • measured value E is greater than E^C:->synergism (+ diff.) • measured value E equals E^C:->additive effect • measured value E is smaller than E^C:->antagonism(− diff.)
# Poa annua (POAAN) = assay: greenhouse post-emergence herbicidal efficacy against POAAN
# Summary of the method: (§6)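 Post-emergence spray, 300 L/ha, on plants grown from seed in sandy loam (8 cm pots), greenhouse. Visual rating 14 and 21 d post-application vs untreated; 0% = no effect, 100% = complete die-off. Mixture values compared with Colby E^C; positive difference = synergism.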
# Bromus sterilis (BROST) = assay: greenhouse post-emergence herbicidal efficacy against BROST
# Summary of the method: as §6
# [1] = system: Polygonum convolvulus (POLCO); assay: greenhouse post-emergence herbicidal efficacy against POLCO
# Summary of the method: as §6
# [2] = system: Chenopodium album (CHEAL); assay: greenhouse post-emergence herbicidal efficacy against CHEAL; settings: 0.1 g of a.i./ha
# Method: as §1, §2, §3, §4, §5
# DIGSA = assay: greenhouse post-emergence herbicidal efficacy against DIGSA
# Method: as §1, §3, §4, §5
# [3] = system: Lolium multiflorum (LOLMU); assay: greenhouse post-emergence herbicidal efficacy against LOLMU; settings: 14 days after application
# Summary of the method: as §6
# [4] = system: Echinochloa crus-galli (ECHCG); assay: greenhouse post-emergence herbicidal efficacy against ECHCG
# Method: as §1, §2, §3, §4, §5
# [5] = system: Matricaria inodora (MATIN); assay: greenhouse post-emergence herbicidal efficacy against MATIN
# Summary of the method: as §6
# Eleusine indica (ELEIN) = assay: greenhouse post-emergence herbicidal efficacy against ELEIN; settings: for pest or weed control at 300 g/ha / pest or weed control at 1200 g/ha / pest or weed control at […] / pest or weed control at 10 g/ha: Eleusine indica, post-emergence; for pest or weed control at 300 g/ha / pest or weed control at 1200 g/ha: read-out: Efficacy; for pest or weed control at […]: 2.5 g of a.i./ha; for pest or weed control at 10 g/ha: 10 g of a.i./ha
# Method: as §1, §2, §3, §4, §5
# [6] = system: Amaranthus retroflexus (AMARE); assay: greenhouse post-emergence herbicidal efficacy against AMARE
# Method: as §1, §2, §3, §4, §5
# Phalaris minor (PHAMI) = assay: greenhouse post-emergence herbicidal efficacy against PHAMI
# Summary of the method: as §6
# Galium aparine (GALAP) = assay: greenhouse post-emergence herbicidal efficacy against GALAP; settings: 21 days after application
# Summary of the method: as §6
# Solanum nigrum (SOLNI) = assay: greenhouse post-emergence herbicidal efficacy against SOLNI
# Method: as §1, §2, §3, §4, §5
# [7] = 14 days after application, 0.1 g of a.i./ha
# [8] = 21 days after application, 0.4 g of a.i./ha
# [9] = 14 days after application, 2.5 g of a.i./ha
# [10] = 21 days after application, g of a.i./ha: A1-14 2.5, pyrasulfotole 25
# [11] = 21 days after application, g of a.i./ha: A1-14 2.5, pyrasulfotole 100
# [12] = 14 days after application, 10 g of a.i./ha
# [13] = 21 days after application, g of a.i./ha: A1-14 10, pyrasulfotole 100
# [14] = 14 days after application, 0.4 g of a.i./ha
# [15] = 14 days after application, 300 g of a.i./ha
# [16] = 14 days after application, 1200 g of a.i./ha
# [17] = 21 days after application, 300 g of a.i./ha
# [18] = 21 days after application, 1200 g of a.i./ha
# [19] = 21 days after application, 2.5 g of a.i./ha
# [20] = 21 days after application, 10 g of a.i./ha
# [21] = 336 h, 14 days after application
# [22] = 504 h, 21 days after application
compound,measurement,setting,value
Cc1nnc(NC(=O)c2ccc(C(F)(F)F)c([S+](C)[O-])c2Cl)o1 (centres unmarked) [A1-14],Efficacy,Setaria viridis (SETVI); [7],0%
same,Efficacy,Setaria viridis (SETVI); [8],0%
same,Efficacy,Poa annua (POAAN); [9],10%
same,Efficacy,Poa annua (POAAN); [10],0%
same,Efficacy,Poa annua (POAAN); [11],0%
same,Efficacy,Bromus sterilis (BROST); [9],0%
same,Efficacy,Bromus sterilis (BROST); [12],3%
same,Efficacy,Bromus sterilis (BROST); [13],0%
same,Efficacy,[1]; [9],20%
same,Efficacy,[1]; [12],20%
same,Efficacy,[1]; [10],0%
same,Efficacy,[1]; [11],0%
same,Efficacy,"[1]; 21 days after application, g of a.i./ha: A1-14 10, pyrasulfotole 25",3%
same,Efficacy,[1]; [13],3%
same,Efficacy,[2]; 14 days after application,0%
same,Efficacy,[2]; 21 days after application,0%
same,Efficacy,DIGSA; [14],0%
same,Efficacy,DIGSA; [8],0%
same,Efficacy,[3]; 2.5 g of a.i./ha,0%
same,Efficacy,[3]; 10 g of a.i./ha,0%
same,Efficacy,[4]; [14],0%
same,Efficacy,[4]; [8],0%
same,Efficacy,[5]; [9],50%
same,Efficacy,[5]; [12],60%
same,Efficacy,[5]; [11],30%
same,Efficacy,Eleusine indica (ELEIN); [7],0%
same,Efficacy,Eleusine indica (ELEIN); [14],20%
same,Efficacy,[6]; [7],0%
same,Efficacy,Phalaris minor (PHAMI); [9],0%
same,Efficacy,Phalaris minor (PHAMI); [12],25%
same,Efficacy,Phalaris minor (PHAMI); [10],0%
same,Efficacy,Phalaris minor (PHAMI); [11],0%
same,Efficacy,"Galium aparine (GALAP); g of a.i./ha: A1-14 2.5, pyrasulfotole 25",0%
same,Efficacy,"Galium aparine (GALAP); g of a.i./ha: A1-14 10, pyrasulfotole 25",15%
O=c1[nH]c2c(c(=O)n1C1CCCCC1)CCC2 [lenacil],Efficacy,Setaria viridis (SETVI); [15],0%
same,Efficacy,Setaria viridis (SETVI); [16],0%
same,Efficacy,Setaria viridis (SETVI); [17],0%
same,Efficacy,Setaria viridis (SETVI); [18],0%
same,Efficacy,DIGSA; [15],0%
same,Efficacy,DIGSA; [16],0%
same,Efficacy,DIGSA; [17],0%
same,Efficacy,DIGSA; [18],0%
same,Efficacy,[4]; [15],0%
same,Efficacy,[4]; [16],0%
same,Efficacy,[4]; [17],0%
same,Efficacy,[4]; [18],0%
same,pest or weed control at 300 g/ha,Eleusine indica (ELEIN); 336 h,0%
same,pest or weed control at 1200 g/ha,Eleusine indica (ELEIN); 336 h,0%
same,pest or weed control at 300 g/ha,Eleusine indica (ELEIN); 504 h,0%
same,pest or weed control at 1200 g/ha,Eleusine indica (ELEIN); 504 h,0%
same,Efficacy,[6]; [16],0%
same,Efficacy,[6]; [17],0%
same,Efficacy,[6]; [18],0%
same,Efficacy,Solanum nigrum (SOLNI); [15],0%
same,Efficacy,Solanum nigrum (SOLNI); [16],0%
same,Efficacy,Solanum nigrum (SOLNI); [17],0%
same,Efficacy,Solanum nigrum (SOLNI); [18],0%
CS(=O)(=O)c1cc(C(F)(F)F)ccc1C(=O)c1cnoc1C1CC1 [isoxaflutole],Efficacy,Setaria viridis (SETVI); [19],0%
same,Efficacy,Setaria viridis (SETVI); [20],0%
same,Efficacy,DIGSA; [12],10%
same,Efficacy,DIGSA; [20],0%
same,Efficacy,[4]; [9],10%
same,Efficacy,[4]; [12],60%
same,Efficacy,[4]; [19],10%
same,Efficacy,[4]; [20],60%
same,pest or weed control at […],Eleusine indica (ELEIN); [21],20%
same,pest or weed control at 10 g/ha,Eleusine indica (ELEIN); [21],60%
same,pest or weed control at […],Eleusine indica (ELEIN); [22],0%
same,pest or weed control at 10 g/ha,Eleusine indica (ELEIN); [22],20%
same,Efficacy,[6]; [19],40%
same,Efficacy,Solanum nigrum (SOLNI); [20],65%
